# Source: ChEMBL document CHEMBL3046346, “Synthesis and analgesic, anti-inflammatory activities of 3-(3-methoxyphenyl)-2-substituted amino-quinazolin-4(3H)-ones” (Med Chem Res, 2011)
# Legend:
# Rattus norvegicus [1] = assay: Anti-inflammatory activity in Rattus norvegicus (rat) assessed as inhibition of carrageenan-induced paw edema at 10 mg/kg, po measured at 3 hr; format: functional
# Rattus norvegicus [2] = assay: Anti-inflammatory activity in Rattus norvegicus (rat) assessed as inhibition of carrageenan-induced paw edema at 10 mg/kg, po measured at 2 hr; format: functional
# Rattus norvegicus [3] = assay: Anti-inflammatory activity in Rattus norvegicus (rat) assessed as inhibition of carrageenan-induced paw edema at 10 mg/kg, po measured at 1 hr; format: functional
# Rattus norvegicus [4] = assay: Anti-inflammatory activity in Rattus norvegicus (rat) assessed as inhibition of carrageenan-induced paw edema at 10 mg/kg, po measured at 30 min; format: functional; settings: 0.5 h
# Mus musculus [5] = assay: […] activity in Mus musculus Wistar albino (mouse) at 10 mg/kg, po after 3 hr by tail-flick test; format: functional
# Mus musculus [6] = assay: […] activity in Mus musculus Wistar albino (mouse) at 10 mg/kg, po after 2 hr by tail-flick test; format: functional
# Mus musculus [7] = assay: […] activity in Mus musculus Wistar albino (mouse) at 10 mg/kg, po after 1 hr by tail-flick test; format: functional
# Mus musculus [8] = assay: […] activity in Mus musculus Wistar albino (mouse) at 10 mg/kg, po after 30 min by tail-flick test; format: functional
# Rattus norvegicus [9] = assay: Gastrointestinal toxicity in fasted Rattus norvegicus Wistar albino (rat) assessed as ulcer index at 20 mg/kg, ip measured after 4 hr; format: organism-based; parameters: dose 20 mg/kg, route intraperitoneal; settings: in vivo
Structure (SMILES),inhibition in vivo at 10 mg/kg (Rattus norvegicus [1]),inhibition in vivo at 10 mg/kg (Rattus norvegicus [2]),inhibition in vivo at 10 mg/kg (Rattus norvegicus [3]),inhibition in vivo at 10 mg/kg (Rattus norvegicus [4]),Activity (Mus musculus [5]),Activity (Mus musculus [6]),Activity (Mus musculus [7]),Activity (Mus musculus [8]),UI (Rattus norvegicus [9])
COc1ccc(/C=N\Nc2nc3ccccc3c(=O)n2-c2cccc(OC)c2)cc1,27%,37%,35%,29%,30%,41%,37%,30%,–
O=C([O-])Cc1ccccc1Nc1c(Cl)cccc1Cl.[Na+] [DICLOFENAC SODIUM],33%,39%,38%,32%,33%,45%,43%,37%,1.65
COc1cccc(-n2c(N/N=C\c3ccccc3)nc3ccccc3c2=O)c1,31%,47%,38%,35%,35%,47%,47%,40%,–
CC(=O)Oc1ccccc1C(=O)O [ASPIRIN],–,–,–,–,–,–,–,–,1.73
COc1cccc(-n2c(N/N=C(\C)c3ccccc3)nc3ccccc3c2=O)c1,32%,45%,42%,39%,36%,51%,46%,44%,0.62
COc1cccc(-n2c(N/N=C\c3ccccc3Cl)nc3ccccc3c2=O)c1,27%,37%,33%,29%,33%,42%,39%,32%,–
CCC/C(C)=N/Nc1nc2ccccc2c(=O)n1-c1cccc(OC)c1,34%,49%,47%,42%,41%,68%,64%,57%,0.58
COc1cccc(-n2c(N/N=C\c3ccccc3[N+](=O)[O-])nc3ccccc3c2=O)c1,27%,38%,35%,35%,36%,45%,41%,35%,–
CCC(CC)=NNc1nc2ccccc2c(=O)n1-c1cccc(OC)c1,34%,53%,48%,45%,38%,66%,61%,56%,0.51
COc1cccc(-n2c(NN=C(c3ccccc3)c3ccccc3)nc3ccccc3c2=O)c1,30%,41%,38%,33%,36%,49%,46%,41%,–
COc1cccc(-n2c(N/N=C3/C(=O)Nc4ccccc43)nc3ccccc3c2=O)c1,31%,40%,37%,35%,36%,46%,43%,39%,–
COc1cccc(-n2c(N/N=C\c3ccc(Cl)cc3)nc3ccccc3c2=O)c1,27%,37%,36%,33%,34%,42%,40%,34%,–
COc1cccc(-n2c(N/N=C\c3ccc(C)cc3)nc3ccccc3c2=O)c1,28%,40%,35%,32%,37%,50%,48%,44%,–
CC/C(C)=N/Nc1nc2ccccc2c(=O)n1-c1cccc(OC)c1,32%,46%,45%,41%,37%,61%,58%,53%,0.53
COc1cccc(-n2c(N/N=C\c3ccccc3C)nc3ccccc3c2=O)c1,30%,42%,41%,36%,34%,51%,45%,39%,–
COc1cccc(-n2c(NN=C3CCCCC3)nc3ccccc3c2=O)c1,31%,43%,40%,37%,38%,53%,49%,46%,0.61
COc1cccc(-n2c(N/N=C\c3ccc([N+](=O)[O-])cc3)nc3ccccc3c2=O)c1,29%,37%,35%,33%,36%,42%,40%,35%,–
